According to ChEMBL document CHEMBL5532643, “Design and synthesis of etrasimod derivatives as potent antibacterial agents against Gram-positive bacteria” (Eur J Med Chem, 2024):
Converted amounts (≈) assume the structure as drawn. The source made the active and inactive calls. The rule behind the calls is not given here.

Key:
Staphylococcus aureus [1] = assay: Bactericidal activity against Staphylococcus aureus ATCC 25923 assessed as reduction in viable bacterial count incubated for 2 hrs by time-kill assay; assay type: functional, organism-based
Staphylococcus aureus [2] = assay: Synergistic antibacterial activity against Staphylococcus aureus ATCC 25923 assessed as fractional inhibitory concentration index incubated for 18 to 20 hrs in presence of ciprofloxacin by checkboard assay; assay type: functional; settings: time 18-20 hrs
Staphylococcus aureus [3] = assay: Bactericidal activity against Staphylococcus aureus ATCC 25923 assessed as log reduction in colony forming units at 0.5 to 8 times MIC measured after 6 hrs by time kill-assay; assay type: functional
[4] = system: Staphylococcus epidermidis; assay: Antibacterial activity against Staphylococcus epidermidis RP62A assessed as reduction in bacterial growth incubated for 18 to 20 hrs by broth microdilution assay; assay type: functional; settings: time 18-20 hrs
Staphylococcus aureus [5] = assay: Synergistic antibacterial activity against methicillin-resistant Staphylococcus aureus ATCC 43300 incubated for 18 to 20 hrs in presence of linezolid by checkboard assay; assay type: functional; settings: time 18-20 hrs
Enterococcus faecalis [6] = assay: Synergistic antibacterial activity against Enterococcus faecalis ATCC 29212 assessed as gentamicin MIC incubated for 18 to 20 hrs by checkboard assay; assay type: functional; settings: time 18-20 hrs
Staphylococcus aureus [7] = assay: Synergistic antibacterial activity against methicillin-resistant Staphylococcus aureus ATCC 43300 assessed as fractional inhibitory concentration index incubated for 18 to 20 hrs in presence of vancomycin by checkboard assay; assay type: functional; settings: time 18-20 hrs
Staphylococcus aureus [8] = assay: Synergistic antibacterial activity against Staphylococcus aureus ATCC 25923 incubated for 18 to 20 hrs in presence of gentamicin by checkboard assay; assay type: functional; settings: time 18-20 hrs
Staphylococcus aureus [9] = assay: Drug resistance, ratio of MIC for Staphylococcus aureus ATCC 25923 after 20 days exposure to MIC for Staphylococcus aureus ATCC 25923 during first exposure; assay type: functional; settings: time 20 day
Enterococcus faecalis [10] = assay: Synergistic antibacterial activity against Enterococcus faecalis ATCC 29212 incubated for 18 to 20 hrs in presence of linezolid by checkboard assay; assay type: functional; settings: time 18-20 hrs
Staphylococcus aureus [11] = assay: Synergistic antibacterial activity against Staphylococcus aureus ATCC 25923 assessed as gentamicin MIC incubated for 18 to 20 hrs by checkboard assay; assay type: functional; settings: time 18-20 hrs
Staphylococcus aureus [12] = assay: Synergistic antibacterial activity against methicillin-resistant Staphylococcus aureus ATCC 43300 incubated for 18 to 20 hrs in presence of vancomycin by checkboard assay; assay type: functional; settings: time 18-20 hrs
Staphylococcus aureus [13] = assay: Synergistic antibacterial activity against methicillin-resistant Staphylococcus aureus ATCC 43300 assessed as fractional inhibitory concentration index incubated for 18 to 20 hrs in presence of gentamicin by checkboard assay; assay type: functional; settings: time 18-20 hrs
Staphylococcus aureus [14] = assay: Antibacterial activity against Staphylococcus aureus ATCC 43300 assessed as reduction in bacterial growth incubated for 18 to 20 hrs by broth microdilution assay; assay type: functional; settings: time 18-20 hrs
Enterococcus faecalis [15] = assay: Synergistic antibacterial activity against Enterococcus faecalis ATCC 29212 incubated for 18 to 20 hrs in presence of vancomycin by checkboard assay; assay type: functional; settings: time 18-20 hrs
Enterococcus faecium = assay: Antibacterial activity against vancomycin-resistant Enterococcus faecium ATCC 700221 assessed as reduction in bacterial growth incubated for 18 to 20 hrs by broth microdilution assay; assay type: functional; settings: time 18-20 hrs
Staphylococcus aureus [16] = assay: Antibiofilm activity against Staphylococcus aureus ATCC 25923 assessed as inhibition of biofilm viability at 100 uM incubated for 18 to 20 hrs by resazurin staining based assay; assay type: functional; settings: time 18-20 hrs
Staphylococcus aureus [17] = assay: Antimicrobial activity against Staphylococcus aureus ATCC 25923 infected in Caenorhabditis elegans AU37 assessed as reduction in number of viable bacteria at 20 uM incubated for 18 hrs; assay type: functional, organism-based
[18] = system: Staphylococcus epidermidis; assay: Antibacterial activity against […] Staphylococcus epidermidis RP62A assessed as reduction in bacterial growth incubated for 18 to 20 hrs by broth microdilution assay; assay type: functional; settings: time 18-20 hrs
Pseudomonas aeruginosa = assay: Antibacterial activity against Pseudomonas aeruginosa ATCC 15442 assessed as reduction in bacterial growth incubated for 18 to 20 hrs by broth microdilution assay; assay type: functional; settings: time 18-20 hrs
Staphylococcus aureus [19] = assay: Synergistic antibacterial activity against methicillin-resistant Staphylococcus aureus ATCC 43300 assessed as fractional inhibitory concentration index incubated for 18 to 20 hrs in presence of linezolid by checkboard assay; assay type: functional; settings: time 18-20 hrs
Staphylococcus aureus [20] = assay: Antibacterial activity against […] Staphylococcus aureus ATCC 43300 assessed as reduction in bacterial growth incubated for 18 to 20 hrs by broth microdilution assay; assay type: functional; settings: time 18-20 hrs
Erythrocyte = assay: Hemolytic activity in mouse RBC assessed as hemolysis at 62.5 uM incubated for 1 hr; assay type: toxicity, cell-based
Enterococcus faecalis [21] = assay: Synergistic antibacterial activity against Enterococcus faecalis ATCC 29212 assessed as ciprofloxacin MIC incubated for 18 to 20 hrs by checkboard assay; assay type: functional; settings: time 18-20 hrs
A549 = assay: Cytotoxicity against human A549 cells assessed as reduction in cell viability incubated for 24 hrs by resazurin staining based analysis; assay type: functional
Staphylococcus aureus [22] = assay: Antimicrobial activity against methicillin-resistant Staphylococcus aureus ATCC 43300 infected in Caenorhabditis elegans AU37 assessed as reduction in bacterial burden at 20 uM incubated for 18 hrs; assay type: functional; parameters: scale not given: the % may be the effect or the level left
[23] = Selectivity index, ratio of CC50 for cytotoxicity against human THP-1 cells assessed as reduction in cell viability to MIC for antibacterial activity against Staphylococcus aureus assessed as reduction in bacterial growth; assay type: toxicity, cell-based; settings: read-out: Selectivity Index
[24] = Hemolytic activity in mouse RBC assessed as hemolysis at 125 uM incubated for 1 hr; assay type: toxicity, cell-based, Erythrocyte; settings: mouse red blood cells (erythrocytes), read-out: Activity
Staphylococcus aureus [25] = assay: Antimicrobial activity against Staphylococcus aureus ATCC 25923 infected in Caenorhabditis elegans AU37 assessed as reduction in bacterial burden at 20 uM incubated for 18 hrs; assay type: functional; parameters: scale not given: the % may be the effect or the level left
[26] = Selectivity index, ratio of CC50 for cytotoxicity against human THP-1 cells assessed as reduction in cell viability to MIC for antibacterial activity against methicillin-resistant Enterococcus faecium assessed as reduction in bacterial growth; assay type: toxicity, cell-based; settings: read-out: Selectivity Index
Staphylococcus aureus [27] = assay: Antibiofilm activity against Staphylococcus aureus ATCC 25923 assessed as inhibition of biofilm biomass at 100 uM incubated for 18 to 20 hrs by crystal violet staining based assay; assay type: functional; settings: time 18-20 hrs
Enterococcus faecalis [28] = assay: Synergistic antibacterial activity against Enterococcus faecalis ATCC 29212 assessed as fractional inhibitory concentration index incubated for 18 to 20 hrs in presence of ciprofloxacin by checkboard assay; assay type: functional; settings: time 18-20 hrs
Staphylococcus aureus [29] = assay: Synergistic antibacterial activity against Staphylococcus aureus ATCC 25923 assessed as vancomycin MIC incubated for 18 to 20 hrs by checkboard assay; assay type: functional; settings: time 18-20 hrs
Enterococcus faecalis [30] = assay: Synergistic antibacterial activity against Enterococcus faecalis ATCC 29212 incubated for 18 to 20 hrs in presence of ciprofloxacin by checkboard assay; assay type: functional; settings: time 18-20 hrs
Staphylococcus aureus [31] = assay: Synergistic antibacterial activity against methicillin-resistant Staphylococcus aureus ATCC 43300 incubated for 18 to 20 hrs in presence of gentamicin by checkboard assay; assay type: functional; settings: time 18-20 hrs
Enterococcus faecalis [32] = assay: Synergistic antibacterial activity against Enterococcus faecalis ATCC 29212 assessed as fractional inhibitory concentration index incubated for 18 to 20 hrs in presence of vancomycin by checkboard assay; assay type: functional; settings: time 18-20 hrs
Staphylococcus aureus [33] = assay: Synergistic antibacterial activity against Staphylococcus aureus ATCC 25923 incubated for 18 to 20 hrs in presence of ciprofloxacin by checkboard assay; assay type: functional; settings: time 18-20 hrs
Cell membrane = assay: Induction of cell membrane damage in Staphylococcus aureus ATCC 25923 at 8 times MIC incubated for 2 hrs by scanning electron microscopic analysis; assay type: cell membranes

O=C(O)c1cc2cc(OCc3ccc(C4CCCCC4)c(C(F)(F)F)c3)ccc2[nH]1
Activity (Staphylococcus aureus [1]): Dose-Dependent Effect | fractional inhibitory concentration index (FICI) (Staphylococcus aureus [2]): 0.625 | log(activity) (Staphylococcus aureus [3]): >3 | MIC [4]: 2.5 µM (≈ 1.04 µg/mL) | MIC (Staphylococcus aureus [5]): 1.25 µM | MIC (Enterococcus faecalis [6]): 1 µg/mL | fractional inhibitory concentration index (FICI) (Staphylococcus aureus [7]): 2 | MIC (Staphylococcus aureus [8]): 1.25 µM | Ratio (Staphylococcus aureus [9]): 3 | MIC (Enterococcus faecalis [10]): 5 µM | MIC (Staphylococcus aureus [11]): 0.5 µg/mL | MIC (Staphylococcus aureus [12]): 2.5 µM | fractional inhibitory concentration index (FICI) (Staphylococcus aureus [13]): <=0.5 | MIC (Staphylococcus aureus [14]): 2.5 µM (≈ 1.04 µg/mL) | MIC (Enterococcus faecalis [15]): 5 µM | MIC (Enterococcus faecium): 5 µM (≈ 2.09 µg/mL) | inhibition at 100 µM (Staphylococcus aureus [16]): > 90% | Activity (Staphylococcus aureus [17]): Active | MIC [18]: 2.5 µM (≈ 1.04 µg/mL) | MIC (Pseudomonas aeruginosa): > 200 µM | fractional inhibitory concentration index (FICI) (Staphylococcus aureus [19]): 1 | MIC (Staphylococcus aureus [20]): 2.5 µM (≈ 1.04 µg/mL) | Activity (Erythrocyte): Non-Toxic | MIC (Enterococcus faecalis [21]): 1.25 µM | CC50 (A549): > 100 µM | Activity (Staphylococcus aureus [22]): 88% | selectivity ratio [23]: > 12 | hemolysis at 1 h, 125 µM [24]: 57% | Activity (Staphylococcus aureus [25]): >85% | selectivity ratio [26]: > 12 | inhibition at 100 µM (Staphylococcus aureus [27]): > 90% | fractional inhibitory concentration index (FICI) (Enterococcus faecalis [28]): 0.75 | MIC (Staphylococcus aureus [29]): 0.625 µM | MIC (Enterococcus faecalis [30]): 1.25 µM | MIC (Staphylococcus aureus [31]): 0.625 µM | fractional inhibitory concentration index (FICI) (Enterococcus faecalis [32]): 2 | MIC (Staphylococcus aureus [33]): 2.5 µM | Activity (Cell membrane): inactive
